From patent US20120101157A1, “4,5-Diamino-3-Halo-2-Hydroxybenzoic Acid Derivatives and Preparations Thereof” (NATIONAL DEFENSE MEDICAL CENTER, priority 2010, published 2012)
In brackets after ≈: the same amount, converted by molar mass. Entries after “also recorded” stand apart in the source; their conditions may differ. Where two headings read alike, the source gives them in different places.

Legend:
in vitro = details: dog
H1N1 virus = test: microbe, parasite or virus in culture; assay type: cell-based; details: for SI (selective index=CC50/MIC) / anti-H1N1 / anti-influenza activity (in words): H1N1 in MDCK cells; for MIC: Influenza A virus, read-out: MIC (minimum inhibitory concentration, cell survival rate >75%)
H5N1 = details: read-out: EC50 (50% effective concentration); H5N1, according to previous studies; cited from earlier work
[1] = H1N1 at 0.01 MOI in MDCK cells, 48 h, MTT

| Structure (SMILES) | CC50 (in vitro) [µg/mL] | melting point [°C] | SI (selective index=CC50/MIC) (H1N1 virus) | anti-H1N1 / anti-influenza activity (in words) (H1N1 virus) | MIC (H1N1 virus; [1]) [µg/mL] | MIC (H1N1 virus; H1N1, 48 h) [µg/mL] | EC50 (H5N1) [µM] |
| --- | --- | --- | --- | --- | --- | --- | --- |
| COC(=O)c1cc(N)c(NC(C)=O)c(Br)c1O [compound 6f, methyl 4-(acetamido)-5-amino-3-bromo-2-hydroxybenzoate] | > 100 | 217 to 219 | >128 | better anti-H1N1 activity; also recorded: effectively inhibit influenza viral activity; also recorded: preferred anti-influenza activity | 0.78 (≈ 2.57 µM) |  |  |
| CC(=O)Nc1c(N)cc(C(=O)O)c(O)c1Br [compound 8, 4-(acetamido)-5-amino-3-bromo-2-hydroxybenzoic acid] | > 100 | 210 to 211 |  | better anti-H1N1 activity; also recorded: effectively inhibit influenza viral activity; also recorded: preferred anti-influenza activity | 1.56 (≈ 5.4 µM) |  |  |
| COC(=O)c1cc(NC(=N)N)c(NC(C)=O)cc1O [compound 7b, methyl 4-(acetamido)-5-guanidino-2-hydroxybenzoate] | > 100 | 233 to 234 |  | better anti-H1N1 activity; also recorded: effectively inhibit influenza viral activity | 25 (≈ 93.9 µM) |  |  |
| CCCC(=O)Nc1cc(O)c(C(=O)OCC)cc1N [compound 6e] | > 100 | 135 to 137 | >64 | better anti-H1N1 activity; also recorded: effectively inhibit influenza viral activity; also recorded: preferred anti-influenza activity | 1.56 (≈ 5.86 µM) |  |  |
| COC(=O)c1cc(N)c(NC(C)=O)cc1O [compound 6b] | > 100 | 204 to 206 |  | better anti-H1N1 activity; also recorded: effectively inhibit influenza viral activity; also recorded: preferred anti-influenza activity | 1.56 (≈ 6.96 µM) |  |  |
| CCCC(=O)Nc1cc(O)c(C(=O)OCC)cc1NC(=N)N [compound 7e, ethyl 4-(butyramido)-5-guanidino-2-hydroxybenzoate] | > 100 |  |  | no inhibiting activity | > 100 |  |  |
| CC(=O)Nc1cc(O)c(C(=O)O)cc1NC(=N)N [compound 7a, 4-(acetamido)-5-guanidino-2-hydroxybenzoic acid] | > 100 | 334 to 357 |  | better anti-H1N1 activity; also recorded: effectively inhibit influenza viral activity | 25 (≈ 99.1 µM) |  |  |
| Nc1ccc(C(=O)O)c(O)c1 [PAS, p-aminosalicylic acid, reference compound] | > 100 |  |  |  |  | > 100 |  |
| CC(=O)Nc1cc(O)c(C(=O)O)cc1N [compound 6a] | > 100 | 295 to 297 |  | better anti-H1N1 activity; also recorded: effectively inhibit influenza viral activity | 50 (≈ 238 µM) |  |  |
| NC(=O)c1ncn([C@@H]2O[C@H](CO)[C@@H](O)[C@H]2O)n1 [Ribavirin, reference compound] |  |  |  |  |  | 1.56 (≈ 6.39 µM) | 6 to 22 |
| COC(=O)c1cc(NC(=N)N)c(NC(C)=O)c(Br)c1O [compound 7f, methyl 4-(acetamido)-3-bromo-5-guanidino-2-hydroxybenzoate] | > 100 | 238 to 240 |  | no inhibiting activity | > 100 |  |  |
